{"source": "ChEMBL document CHEMBL4673260", "about": "“Pyridine alkaloids with activity in the central nervous system” (Bioorg Med Chem, 2020)", "key": {"Mus musculus [1]": {"system": "Mus musculus", "assay": "Anti-analeptic activity in mouse assessed as reduction in corazol-induced convulsion at 25 mg/kg relative to control", "assay_type": "functional", "design": "scale not given: the % may be the effect or the level left"}, "Mus musculus [2]": {"system": "Mus musculus", "assay": "Anti-analeptic activity in mouse assessed as reduction in convulsion at 125 to 150 mg/kg coadministered with camphor relative to control", "assay_type": "functional", "design": "scale not given: the % may be the effect or the level left", "conditions": "dose 125-150 mg/kg"}, "[3]": {"assay": "Protection against strychnine-induced mortality in mouse at 100 mg/kg", "assay_type": "ADME, organism-based", "conditions": "in vivo"}, "[4]": {"assay": "Protection against caffeine-induced mortality in mouse at 250 mg/kg", "assay_type": "ADME, organism-based", "conditions": "in vivo"}, "Mus musculus [5]": {"system": "Mus musculus", "assay": "Anti-analeptic activity in mouse assessed as reduction in lethality at 125 to 150 mg/kg coadministered with camphor relative to control", "assay_type": "functional", "design": "scale not given: the % may be the effect or the level left", "conditions": "dose 125-150 mg/kg"}, "Mus musculus [6]": {"system": "Mus musculus", "assay": "Anti-analeptic activity in mouse assessed as reduction in corazol-induced convulsion at 75 mg/kg relative to control", "assay_type": "functional", "design": "scale not given: the % may be the effect or the level left"}}}
{"smiles": "COc1c2c(nc3occc13)[C@@](CC=C(C)C)(OC)[C@H](O)CC2", "values": [{"measurement": "Activity", "setting": "Mus musculus [1]", "result": 50, "unit": "%"}, {"measurement": "Activity", "setting": "Mus musculus [2]", "result": 50, "unit": "%"}, {"measurement": "Activity", "setting": "[3]", "result": 100, "unit": "%"}, {"measurement": "Activity", "setting": "[4]", "result": 80, "unit": "%"}, {"measurement": "Activity", "setting": "Mus musculus [5]", "result": 100, "unit": "%"}, {"measurement": "Activity", "setting": "Mus musculus [6]", "result": 100, "unit": "%"}]}
